Experimental data as given in the NIST ThermoML archive (doi:10.1007/s10765-007-0223-x).
± gives the expanded uncertainty stated by the source.

Test: xn = mol fraction of the nth substance listed
Conditions: 101 kPa, Liquid; for speed of sound: Single path-length method

CCc1ccccc1 [ethylbenzene] + COC(C)(C)C
speed of sound (288.15 K, x2 = 0): 1360.7 ± 2.1 m/s
speed of sound (288.15 K, x2 = 0.046): 1348.3 ± 2.1 m/s
speed of sound (288.15 K, x2 = 0.106): 1334.4 ± 2.1 m/s
speed of sound (288.15 K, x2 = 0.212): 1307.2 ± 2.1 m/s
speed of sound (288.15 K, x2 = 0.299): 1284.6 ± 2.1 m/s
speed of sound (288.15 K, x2 = 0.402): 1256.7 ± 2.1 m/s
speed of sound (288.15 K, x2 = 0.503): 1231.4 ± 2.1 m/s
speed of sound (288.15 K, x2 = 0.6): 1201.3 ± 2.1 m/s
speed of sound (288.15 K, x2 = 0.701): 1171.9 ± 2.1 m/s
speed of sound (288.15 K, x2 = 0.822): 1136.2 ± 2.1 m/s
speed of sound (288.15 K, x2 = 0.899): 1112.7 ± 2.1 m/s
speed of sound (288.15 K, x2 = 0.948): 1097.3 ± 2.1 m/s
mass density (288.15 K, x2 = 0): 871.245 ± 0.36 kg/m3
mass density (288.15 K, x2 = 0.046): 866.075 ± 0.39 kg/m3
mass density (288.15 K, x2 = 0.106): 859.155 ± 0.4 kg/m3
mass density (288.15 K, x2 = 0.212): 846.925 ± 0.42 kg/m3
mass density (288.15 K, x2 = 0.299): 836.536 ± 0.43 kg/m3
mass density (288.15 K, x2 = 0.402): 823.953 ± 0.45 kg/m3
mass density (288.15 K, x2 = 0.503): 812.763 ± 0.47 kg/m3
mass density (288.15 K, x2 = 0.6): 799.067 ± 0.49 kg/m3
mass density (288.15 K, x2 = 0.701): 785.93 ± 0.51 kg/m3
mass density (288.15 K, x2 = 0.822): 769.744 ± 0.53 kg/m3
mass density (288.15 K, x2 = 0.899): 759.058 ± 0.55 kg/m3
mass density (288.15 K, x2 = 0.948): 752.102 ± 0.56 kg/m3
speed of sound (290.65 K, x2 = 0): 1349.9 ± 2.1 m/s
speed of sound (290.65 K, x2 = 0.046): 1337.6 ± 2.1 m/s
speed of sound (290.65 K, x2 = 0.106): 1323.4 ± 2.1 m/s
speed of sound (290.65 K, x2 = 0.212): 1296.3 ± 2.1 m/s
speed of sound (290.65 K, x2 = 0.299): 1273.7 ± 2.1 m/s
speed of sound (290.65 K, x2 = 0.402): 1245.6 ± 2.1 m/s
speed of sound (290.65 K, x2 = 0.503): 1220.2 ± 2.1 m/s
speed of sound (290.65 K, x2 = 0.6): 1190.1 ± 2.1 m/s
speed of sound (290.65 K, x2 = 0.701): 1160.5 ± 2.1 m/s
speed of sound (290.65 K, x2 = 0.822): 1124.5 ± 2.1 m/s
speed of sound (290.65 K, x2 = 0.899): 1100.7 ± 2.1 m/s
speed of sound (290.65 K, x2 = 0.948): 1085.4 ± 2.1 m/s
mass density (290.65 K, x2 = 0): 869.052 ± 0.37 kg/m3
mass density (290.65 K, x2 = 0.046): 863.868 ± 0.39 kg/m3
mass density (290.65 K, x2 = 0.106): 856.925 ± 0.4 kg/m3
mass density (290.65 K, x2 = 0.212): 844.671 ± 0.42 kg/m3
mass density (290.65 K, x2 = 0.299): 834.249 ± 0.44 kg/m3
mass density (290.65 K, x2 = 0.402): 821.631 ± 0.45 kg/m3
mass density (290.65 K, x2 = 0.503): 810.408 ± 0.47 kg/m3
mass density (290.65 K, x2 = 0.6): 796.665 ± 0.49 kg/m3
mass density (290.65 K, x2 = 0.701): 783.488 ± 0.51 kg/m3
mass density (290.65 K, x2 = 0.822): 767.243 ± 0.54 kg/m3
mass density (290.65 K, x2 = 0.899): 756.516 ± 0.55 kg/m3
mass density (290.65 K, x2 = 0.948): 749.532 ± 0.56 kg/m3
speed of sound (293.15 K, x2 = 0): 1339.4 ± 2.1 m/s
speed of sound (293.15 K, x2 = 0.046): 1326.8 ± 2.1 m/s
speed of sound (293.15 K, x2 = 0.106): 1312.7 ± 2.1 m/s
speed of sound (293.15 K, x2 = 0.212): 1285.5 ± 2.1 m/s
speed of sound (293.15 K, x2 = 0.299): 1262.8 ± 2.1 m/s
speed of sound (293.15 K, x2 = 0.402): 1234.6 ± 2.1 m/s
speed of sound (293.15 K, x2 = 0.503): 1209.2 ± 2.1 m/s
speed of sound (293.15 K, x2 = 0.6): 1179 ± 2.1 m/s
speed of sound (293.15 K, x2 = 0.701): 1149.3 ± 2.1 m/s
speed of sound (293.15 K, x2 = 0.822): 1113.2 ± 2.1 m/s
speed of sound (293.15 K, x2 = 0.899): 1089.2 ± 2.1 m/s
speed of sound (293.15 K, x2 = 0.948): 1073.8 ± 2.1 m/s
mass density (293.15 K, x2 = 0): 866.856 ± 0.37 kg/m3
mass density (293.15 K, x2 = 0.046): 861.653 ± 0.4 kg/m3
mass density (293.15 K, x2 = 0.106): 854.698 ± 0.41 kg/m3
mass density (293.15 K, x2 = 0.212): 842.406 ± 0.42 kg/m3
mass density (293.15 K, x2 = 0.299): 831.951 ± 0.44 kg/m3
mass density (293.15 K, x2 = 0.402): 819.3 ± 0.46 kg/m3
mass density (293.15 K, x2 = 0.503): 808.048 ± 0.47 kg/m3
mass density (293.15 K, x2 = 0.6): 794.26 ± 0.5 kg/m3
mass density (293.15 K, x2 = 0.701): 781.04 ± 0.52 kg/m3
mass density (293.15 K, x2 = 0.822): 764.736 ± 0.54 kg/m3
mass density (293.15 K, x2 = 0.899): 753.964 ± 0.56 kg/m3
mass density (293.15 K, x2 = 0.948): 746.956 ± 0.57 kg/m3
speed of sound (295.65 K, x2 = 0): 1328.9 ± 2.1 m/s
speed of sound (295.65 K, x2 = 0.046): 1316.3 ± 2.1 m/s
speed of sound (295.65 K, x2 = 0.106): 1302 ± 2.1 m/s
speed of sound (295.65 K, x2 = 0.212): 1274.8 ± 2.1 m/s
speed of sound (295.65 K, x2 = 0.299): 1252 ± 2.1 m/s
speed of sound (295.65 K, x2 = 0.402): 1223.7 ± 2.1 m/s
speed of sound (295.65 K, x2 = 0.503): 1198.2 ± 2.1 m/s
speed of sound (295.65 K, x2 = 0.6): 1167.8 ± 2.1 m/s
speed of sound (295.65 K, x2 = 0.701): 1138.1 ± 2.1 m/s
speed of sound (295.65 K, x2 = 0.822): 1101.8 ± 2.1 m/s
speed of sound (295.65 K, x2 = 0.899): 1077.7 ± 2.1 m/s
speed of sound (295.65 K, x2 = 0.948): 1062.3 ± 2.1 m/s
mass density (295.65 K, x2 = 0): 864.66 ± 0.37 kg/m3
mass density (295.65 K, x2 = 0.046): 859.445 ± 0.4 kg/m3
mass density (295.65 K, x2 = 0.106): 852.469 ± 0.41 kg/m3
mass density (295.65 K, x2 = 0.212): 840.144 ± 0.43 kg/m3
mass density (295.65 K, x2 = 0.299): 829.658 ± 0.44 kg/m3
mass density (295.65 K, x2 = 0.402): 816.97 ± 0.46 kg/m3
